From US11420958B2, “Aryl and heteroaryl substituted indole compounds” (BRISTOL-MYERS SQUIBB COMPANY, priority 2017, dated 2022)
pIC50: −log10 of the molar value.

What was measured:
Format in all cases: cell-based
human TLR8 = human TLR8 (Homo sapiens (Human), UniProt Q9NR97); assay: TLR8 inhibition reporter assay (HEK-Blue, SEAP); settings: HEK-Blue cells overexpressing human TLR8, R848 15.9 μM stimulation
Outline: (§1)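 HEK-Blue cells overexpressing the receptor carry a SEAP reporter under IFN-β minimal promoter with NF-κB/AP-1 sites. Compounds (0.05 nM–50 μM final) were preincubated 30 min at room temperature, then cells were stimulated with gardiquimod 7.5 μM (TLR7), R848 15.9 μM (TLR8) or ODN2006 5 nM (TLR9) for 22 h at 37 °C.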

human TLR7 = human TLR7 (Homo sapiens (Human), UniProt Q9NYK1); assay: TLR7 inhibition reporter assay (HEK-Blue, SEAP); settings: HEK-Blue cells overexpressing human TLR7, gardiquimod 7.5 μM stimulation
human TLR7, sequence (Q9NYK1 27-1049): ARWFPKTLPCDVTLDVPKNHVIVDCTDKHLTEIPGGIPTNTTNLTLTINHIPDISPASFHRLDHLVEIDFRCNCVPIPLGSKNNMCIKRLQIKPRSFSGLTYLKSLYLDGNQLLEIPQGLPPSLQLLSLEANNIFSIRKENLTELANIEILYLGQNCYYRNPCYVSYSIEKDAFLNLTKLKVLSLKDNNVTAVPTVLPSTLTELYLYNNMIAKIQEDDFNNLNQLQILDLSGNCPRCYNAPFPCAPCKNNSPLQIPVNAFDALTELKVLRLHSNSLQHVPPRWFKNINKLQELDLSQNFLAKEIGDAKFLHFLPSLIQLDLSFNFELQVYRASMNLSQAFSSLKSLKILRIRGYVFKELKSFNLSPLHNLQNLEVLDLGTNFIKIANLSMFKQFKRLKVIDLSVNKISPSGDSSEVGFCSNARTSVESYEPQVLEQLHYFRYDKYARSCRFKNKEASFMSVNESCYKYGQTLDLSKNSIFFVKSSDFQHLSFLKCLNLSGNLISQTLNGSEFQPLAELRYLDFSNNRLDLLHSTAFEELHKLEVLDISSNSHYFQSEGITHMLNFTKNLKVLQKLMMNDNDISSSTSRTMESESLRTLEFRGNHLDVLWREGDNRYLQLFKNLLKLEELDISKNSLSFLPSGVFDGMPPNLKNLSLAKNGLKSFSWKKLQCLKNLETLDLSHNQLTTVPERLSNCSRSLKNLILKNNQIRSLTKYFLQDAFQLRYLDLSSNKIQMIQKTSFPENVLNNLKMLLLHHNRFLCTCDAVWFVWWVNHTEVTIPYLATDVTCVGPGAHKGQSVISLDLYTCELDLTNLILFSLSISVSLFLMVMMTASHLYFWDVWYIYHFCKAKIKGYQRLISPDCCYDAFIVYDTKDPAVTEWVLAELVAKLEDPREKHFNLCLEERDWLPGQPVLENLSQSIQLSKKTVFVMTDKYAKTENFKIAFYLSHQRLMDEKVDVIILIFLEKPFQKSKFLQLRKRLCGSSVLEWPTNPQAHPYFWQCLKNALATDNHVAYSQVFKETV
Outline: as §1

human TLR9 = human TLR9 (Homo sapiens (Human), UniProt Q9NR96); assay: TLR9 inhibition reporter assay (HEK-Blue, SEAP); settings: HEK-Blue cells overexpressing human TLR9, ODN2006 5 nM stimulation
human TLR9, sequence (Q9NR96 26-1032): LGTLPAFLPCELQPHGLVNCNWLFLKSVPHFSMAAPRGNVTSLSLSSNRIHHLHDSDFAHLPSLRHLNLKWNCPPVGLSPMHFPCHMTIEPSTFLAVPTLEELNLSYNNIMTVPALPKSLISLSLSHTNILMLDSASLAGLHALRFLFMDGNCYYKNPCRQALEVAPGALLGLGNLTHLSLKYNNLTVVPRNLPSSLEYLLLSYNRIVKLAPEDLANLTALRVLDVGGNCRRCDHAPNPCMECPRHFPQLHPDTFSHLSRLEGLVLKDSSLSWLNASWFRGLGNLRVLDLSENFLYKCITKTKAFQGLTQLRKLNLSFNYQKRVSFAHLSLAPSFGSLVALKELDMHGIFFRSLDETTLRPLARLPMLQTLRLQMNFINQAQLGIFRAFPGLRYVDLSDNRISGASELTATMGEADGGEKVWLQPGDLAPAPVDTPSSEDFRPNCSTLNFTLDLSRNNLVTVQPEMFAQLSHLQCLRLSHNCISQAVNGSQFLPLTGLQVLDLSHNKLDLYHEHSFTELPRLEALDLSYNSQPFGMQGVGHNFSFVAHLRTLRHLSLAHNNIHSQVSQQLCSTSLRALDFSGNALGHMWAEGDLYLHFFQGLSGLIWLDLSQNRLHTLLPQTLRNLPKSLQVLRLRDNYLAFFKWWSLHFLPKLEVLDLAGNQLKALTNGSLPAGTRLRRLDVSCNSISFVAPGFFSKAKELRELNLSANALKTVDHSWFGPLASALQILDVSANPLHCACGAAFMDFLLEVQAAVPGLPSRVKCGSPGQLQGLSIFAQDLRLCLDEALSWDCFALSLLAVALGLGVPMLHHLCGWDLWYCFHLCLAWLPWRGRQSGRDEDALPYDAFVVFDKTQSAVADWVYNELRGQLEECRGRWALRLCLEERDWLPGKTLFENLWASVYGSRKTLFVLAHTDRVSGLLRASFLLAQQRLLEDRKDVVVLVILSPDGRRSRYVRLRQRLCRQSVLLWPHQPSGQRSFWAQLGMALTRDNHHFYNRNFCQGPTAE
Outline: as §1

human TLR8, sequence (Q9NR97 27-1041): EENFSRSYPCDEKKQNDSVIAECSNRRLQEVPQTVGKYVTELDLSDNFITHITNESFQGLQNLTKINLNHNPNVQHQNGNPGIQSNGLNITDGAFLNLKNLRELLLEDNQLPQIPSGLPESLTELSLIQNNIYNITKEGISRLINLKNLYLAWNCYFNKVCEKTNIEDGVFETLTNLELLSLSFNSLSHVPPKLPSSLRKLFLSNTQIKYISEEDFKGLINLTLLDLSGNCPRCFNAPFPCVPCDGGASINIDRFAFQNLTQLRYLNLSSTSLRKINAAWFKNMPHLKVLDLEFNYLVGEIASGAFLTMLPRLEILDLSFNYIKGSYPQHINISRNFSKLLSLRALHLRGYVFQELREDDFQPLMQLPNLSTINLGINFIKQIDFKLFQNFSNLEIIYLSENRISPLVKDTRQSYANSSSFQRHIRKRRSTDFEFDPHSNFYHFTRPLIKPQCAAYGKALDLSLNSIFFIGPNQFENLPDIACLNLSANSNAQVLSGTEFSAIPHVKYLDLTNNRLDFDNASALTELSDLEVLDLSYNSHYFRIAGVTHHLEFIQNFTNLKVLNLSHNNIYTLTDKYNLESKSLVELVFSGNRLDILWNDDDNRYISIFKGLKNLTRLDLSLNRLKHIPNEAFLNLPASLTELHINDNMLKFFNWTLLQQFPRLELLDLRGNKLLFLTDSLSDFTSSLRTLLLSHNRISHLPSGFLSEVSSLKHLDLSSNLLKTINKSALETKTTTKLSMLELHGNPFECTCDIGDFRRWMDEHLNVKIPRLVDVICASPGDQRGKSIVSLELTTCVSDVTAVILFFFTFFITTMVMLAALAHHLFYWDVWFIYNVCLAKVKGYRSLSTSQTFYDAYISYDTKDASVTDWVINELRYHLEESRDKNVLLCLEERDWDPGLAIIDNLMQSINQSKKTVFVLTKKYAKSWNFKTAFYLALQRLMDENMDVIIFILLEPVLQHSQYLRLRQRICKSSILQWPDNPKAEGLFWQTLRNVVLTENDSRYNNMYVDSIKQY

Row | Compound | pIC50 (human TLR8) | pIC50 (human TLR7) | pIC50 (human TLR9)
1 | CNCC(=O)N1CCc2cc(-c3ccc4[nH]c(-c5ccnc(C)c5)c(C(C)C)c4c3)sc2C1 [Example 252, 1-(2-(3-isopropyl-2-(2-methylpyridin-4-yl)-1H-indol-5-yl)-4,7-dihydrothieno[2,3-c]pyridin-6(5H)-yl)-2-(methylamino)ethan-1-one] | 7.92 | 7.66 | 6.10
2 | Cc1cc(-c2[nH]c3ccc(-c4ccc(N5CCN(C)CC5)nc4)cc3c2C(C)C)ccn1 [Example 253, 3-isopropyl-5-(6-(4-methylpiperazin-1-yl)pyridin-3-yl)-2-(2-methylpyridin-4-yl)-1H-indole] | 7.66 | 7.35 | 6.52
3 | Cc1cc(-c2[nH]c3ccc(-c4cnc(C5CCNCC5)[nH]4)cc3c2C(C)C)ccn1 [Example 254, 3-isopropyl-2-(2-methylpyridin-4-yl)-5-(2-(piperidin-4-yl)-1H-imidazol-5-yl)-1H-indole] | 7.11 | 7.06 | 5.92
4 | Cc1cc(-c2[nH]c3ccc(-c4ccc(N5CCNCC5)nc4)cc3c2C(C)C)ccn1 [Example 255, 3-isopropyl-2-(2-methylpyridin-4-yl)-5-(6-(piperazin-1-yl)pyridin-3-yl)-1H-indole] | 8.54 | 7.92 | 6.47
5 | CC(=O)Nc1ccc(-c2ccc3[nH]c(-c4ccnc(C)c4)c(C(C)C)c3c2)cn1 [Example 256, N-(5-(3-isopropyl-2-(2-methylpyridin-4-yl)-1H-indol-5-yl)pyridin-2-yl)acetamide] | 7.82 | 7.00 | < 4.30
6 | Cc1cc(-c2[nH]c3ccc(-c4ccc(N5CCNCC5)nc4)cc3c2C(C)C)cc(C)n1 [Example 257, 2-(2,6-dimethylpyridin-4-yl)-3-isopropyl-5-(6-(piperazin-1-yl)pyridin-3-yl)-1H-indole] | 8.77 | 8.77 | 6.82
7 | Cc1cc(-c2[nH]c3ccc(-c4ccnc(-c5cn[nH]c5)c4)cc3c2C(C)C)ccn1 [Example 258, 5-(2-(1H-pyrazol-4-yl)pyridin-4-yl)-3-isopropyl-2-(2-methylpyridin-4-yl)-1H-indole] | 8.40 | 6.65 | 4.92
8 | Cc1cc(-c2[nH]c3ccc(-c4nnc(CC(C)N)o4)cc3c2C(C)C)ccn1 (stereo not drawn) [Example 259, 1-(5-(3-isopropyl-2-(2-methylpyridin-4-yl)-1H-indol-5-yl)-1,3,4-oxadiazol-2-yl)propan-2-amine] | 8.26 | 7.59 | 6.06
9 | Cc1cc(-c2[nH]c3ccc(-c4nnc(CCN5CCCCC5)o4)cc3c2C(C)C)ccn1 [Example 260, 2-(3-isopropyl-2-(2-methylpyridin-4-yl)-1H-indol-5-yl)-5-(2-(piperidin-1-yl)ethyl)-1,3,4-oxadiazole] | 8.66 | 6.88 | 5.91
10 | Cc1cc(-c2[nH]c3ccc(-c4nnc([C@@H]5CCCN5)o4)cc3c2C(C)C)ccn1 [Example 261, (S)-2-(3-isopropyl-2-(2-methylpyridin-4-yl)-1H-indol-5-yl)-5-(pyrrolidin-2-yl)-1,3,4-oxadiazole] | 8.35 | 6.79 | 5.20
11 | Cc1cc(-c2[nH]c3ccc(-c4nnc(CCc5cccnc5)o4)cc3c2C(C)C)ccn1 [Example 262, 2-(3-isopropyl-2-(2-methylpyridin-4-yl)-1H-indol-5-yl)-5-(2-(pyridin-3-yl)ethyl)-1,3,4-oxadiazole] | 7.22 | 6.54 | 5.23
12 | Cc1cc(-c2[nH]c3ccc(-c4nnc(C(C)CN)o4)cc3c2C(C)C)ccn1 (stereo not drawn) [Example 263, 2-(5-(3-isopropyl-2-(2-methylpyridin-4-yl)-1H-indol-5-yl)-1,3,4-oxadiazol-2-yl)propan-1-amine] | 8.49 | 7.30 | 6.06
13 | Cc1cc(-c2[nH]c3ccc(-c4nnc(CCCCN)o4)cc3c2C(C)C)ccn1 [Example 264, 4-(5-(3-isopropyl-2-(2-methylpyridin-4-yl)-1H-indol-5-yl)-1,3,4-oxadiazol-2-yl)butan-1-amine] | 7.44 | 6.60 | 5.14
14 | Cc1cc(-c2[nH]c3ccc(-c4nnc(CC(C)(C)N)o4)cc3c2C(C)C)ccn1 [Example 265, 1-(5-(3-isopropyl-2-(2-methylpyridin-4-yl)-1H-indol-5-yl)-1,3,4-oxadiazol-2-yl)-2-methylpropan-2-amine] | 8.48 | 7.68 | 6.25
15 | Cc1cc(-c2[nH]c3ccc(-c4nnc([C@@H]5CCCC[C@@H]5N)o4)cc3c2C(C)C)ccn1 [Example 266, (1S,2R)-2-(5-(3-isopropyl-2-(2-methylpyridin-4-yl)-1H-indol-5-yl)-1,3,4-oxadiazol-2-yl)cyclohexan-1-amine] | 9.30 | 7.42 | 6.11
16 | Cc1cc(-c2[nH]c3ccc(-c4nnc([C@@H]5CCC[C@@H]5N)o4)cc3c2C(C)C)ccn1 [Example 267, (1S,2R)-2-(5-(3-isopropyl-2-(2-methylpyridin-4-yl)-1H-indol-5-yl)-1,3,4-oxadiazol-2-yl)cyclopentan-1-amine] | 8.62 | 7.52 | 6.12
17 | Cc1cc(-c2[nH]c3ccc(-c4nnc([C@@H](N)C5CC5)o4)cc3c2C(C)C)ccn1 [Example 268, (S)-cyclopropyl(5-(3-isopropyl-2-(2-methylpyridin-4-yl)-1H-indol-5-yl)-1,3,4-oxadiazol-2-yl)methanamine] | 8.55 | 6.67 | 4.47
18 | Cc1cc(-c2[nH]c3ccc(-c4ccnc(N5CCN(C)CC5)c4)cc3c2C(C)C)ccn1 [Example 269, 3-isopropyl-5-(2-(4-methylpiperazin-1-yl)pyridin-4-yl)-2-(2-methylpyridin-4-yl)-1H-indole] | 8.26 | 7.13 | 6.08
19 | Cc1cc(-c2[nH]c3ccc(-c4nnc(CCN(C)C)o4)cc3c2C(C)C)cc(C)n1 [Example 270, 2-(5-(2-(2,6-dimethylpyridin-4-yl)-3-isopropyl-1H-indol-5-yl)-1,3,4-oxadiazol-2-yl)-N,N-dimethylethan-1-amine] | 9.00 | 8.00 | 6.53
20 | Cc1cc(-c2[nH]c3ccc(-c4nnc(CCCN(C)C)o4)cc3c2C(C)C)cc(C)n1 [Example 271, 3-(5-(2-(2,6-dimethylpyridin-4-yl)-3-isopropyl-1H-indol-5-yl)-1,3,4-oxadiazol-2-yl)-N,N-dimethylpropan-1-amine] | 8.72 | 8.20 | 6.55
21 | Cc1cc(-c2[nH]c3ccc(-c4ccnc(C5CCN(C(C)C)CC5)c4)cc3c2C(C)C)ccn1 [Example 272, 3-isopropyl-5-(2-(1-isopropylpiperidin-4-yl)pyridin-4-yl)-2-(2-methylpyridin-4-yl)-1H-indole] | 8.05 | 7.62 | 6.42
22 | Cc1cc(-c2[nH]c3ccc(-c4ccnc(N5CCNCC5)c4)cc3c2C(C)C)ccn1 [Example 273, 3-isopropyl-2-(2-methylpyridin-4-yl)-5-(2-(piperazin-1-yl)pyridin-4-yl)-1H-indole] | 8.24 | 7.35 | 6.10
23 | Cc1cc(-c2[nH]c3ccc(-c4nc(C(=O)NCCN5CCCCC5)co4)cc3c2C(C)C)cc(C)n1 [Example 274, 2-(2-(2,6-dimethylpyridin-4-yl)-3-isopropyl-1H-indol-5-yl)-N-(2-(piperidin-1-yl)ethyl)oxazole-4-carboxamide] | 8.21 | 7.66 | 6.22
24 | Cc1cc(-c2[nH]c3ccc(-c4nc(C(=O)NCCCN5CCCCC5)co4)cc3c2C(C)C)cc(C)n1 [Example 275, 2-(2-(2,6-dimethylpyridin-4-yl)-3-isopropyl-1H-indol-5-yl)-N-(3-(piperidin-1-yl)propyl)oxazole-4-carboxamide] | 7.92 | 7.74 | 6.22
25 | Cc1cc(-c2[nH]c3ccc(-c4nc(C(=O)NCC5CCNC5)co4)cc3c2C(C)C)cc(C)n1 (stereo not drawn) [Example 276, 2-(2-(2,6-dimethylpyridin-4-yl)-3-isopropyl-1H-indol-5-yl)-N-(pyrrolidin-3-ylmethyl)oxazole-4-carboxamide] | 7.59 | 7.31 | 5.96
26 | Cc1cc(-c2[nH]c3ccc(-c4nc(C(=O)NCC(C)CN)co4)cc3c2C(C)C)cc(C)n1 (stereo not drawn) [Example 277, N-(3-amino-2-methylpropyl)-2-(2-(2,6-dimethylpyridin-4-yl)-3-isopropyl-1H-indol-5-yl)oxazole-4-carboxamide] | 7.89 | 7.68 | 5.97
27 | Cc1cc(-c2[nH]c3ccc(-c4nc(C(=O)NCCCN)co4)cc3c2C(C)C)cc(C)n1 [Example 278, N-(3-aminopropyl)-2-(2-(2,6-dimethylpyridin-4-yl)-3-isopropyl-1H-indol-5-yl)oxazole-4-carboxamide] | 7.43 | 7.48 | 6.31
28 | CNCCCNC(=O)c1coc(-c2ccc3[nH]c(-c4cc(C)nc(C)c4)c(C(C)C)c3c2)n1 [Example 279, 2-(2-(2,6-dimethylpyridin-4-yl)-3-isopropyl-1H-indol-5-yl)-N-(3-(methylamino)propyl)oxazole-4-carboxamide] | 8.06 | 7.85 | 6.89
29 | Cc1cc(-c2[nH]c3ccc(-c4nc(C(=O)NCCCN(C)C)co4)cc3c2C(C)C)cc(C)n1 [Example 280, N-(3-(dimethylamino)propyl)-2-(2-(2,6-dimethylpyridin-4-yl)-3-isopropyl-1H-indol-5-yl)oxazole-4-carboxamide] | 8.74 | 8.42 | 6.81
